These results are taken from US4689339A, “4-dihydroinden-2-yl-, 4-tetrahydronaphth-2-yl-, and 4-dihydrobenzofuran-2-ylimidazoles, useful to block α2 -adrenergic receptors” (Farmos Yhtyma oy, priority 1984, dated 1987).

Where two headings read alike, the source gives them in different places.

The target of experiment [1] is T1, α2-receptors of the central nervous system (Rattus norvegicus, UniProt P22909).
T1 construct: In anaesthetized rat, a standard dose of detomidine was administered intravenously; from tissue; host or cells: whole anaesthetized rat, in vivo (central nervous system)
T1 sequence (P22909 1-465): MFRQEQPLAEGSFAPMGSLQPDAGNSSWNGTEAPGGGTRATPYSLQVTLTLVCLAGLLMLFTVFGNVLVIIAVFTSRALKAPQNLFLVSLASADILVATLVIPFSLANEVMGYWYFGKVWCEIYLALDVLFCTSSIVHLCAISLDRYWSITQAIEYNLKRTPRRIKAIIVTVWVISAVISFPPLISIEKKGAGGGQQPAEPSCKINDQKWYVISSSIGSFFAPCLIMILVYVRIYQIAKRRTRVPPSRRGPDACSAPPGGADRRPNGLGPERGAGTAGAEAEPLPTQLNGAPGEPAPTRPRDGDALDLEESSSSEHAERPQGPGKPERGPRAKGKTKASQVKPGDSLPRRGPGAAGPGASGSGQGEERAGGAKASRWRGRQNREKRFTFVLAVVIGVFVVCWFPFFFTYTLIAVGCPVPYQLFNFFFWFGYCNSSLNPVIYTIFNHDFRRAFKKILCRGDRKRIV
In words: α2-antagonism in vivo, reversal of detomidine-induced mydriasis in anaesthetized rat. Particulars: iv. The protocol:
The central α2 -blocking effect of the studied substances under in vivo conditions was studied using two methods. First, it is known that in the rat α2 -agonists induce dilatation of the pupil (mydriasis) which effect is transmitted via α2 -receptors of the central nervous system. In anaesthetized rat, a standard dose of detomidine was administered intravenously. Thereafter increasing doses of the studied antagonist were injected intravenously and the reversal of detomidine-induced mydriasis was followed. The ED50 value of the antagonist, i.e. the dose producing a 50 percent reversal, was determined.

Experiment [2] concerns the target T2, α2-receptors (Mus musculus, UniProt Q01338).
T2 construct: isolated, electrically stimulated mouse vas deferens preparation; from tissue; host or cells: mouse vas deferens
T2 sequence (Q01338 1-465): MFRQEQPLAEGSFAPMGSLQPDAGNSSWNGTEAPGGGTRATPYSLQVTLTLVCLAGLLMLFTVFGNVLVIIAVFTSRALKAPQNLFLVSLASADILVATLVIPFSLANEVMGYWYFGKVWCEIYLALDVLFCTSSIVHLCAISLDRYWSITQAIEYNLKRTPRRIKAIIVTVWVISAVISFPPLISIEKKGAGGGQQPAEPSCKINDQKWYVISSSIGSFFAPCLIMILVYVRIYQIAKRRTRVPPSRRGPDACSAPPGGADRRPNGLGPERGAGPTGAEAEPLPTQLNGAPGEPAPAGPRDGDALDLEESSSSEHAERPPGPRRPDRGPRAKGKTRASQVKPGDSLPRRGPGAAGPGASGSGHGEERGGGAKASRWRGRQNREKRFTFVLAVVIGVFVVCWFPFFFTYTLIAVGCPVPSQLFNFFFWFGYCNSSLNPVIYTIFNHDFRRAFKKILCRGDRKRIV
In words: α2-antagonism in vitro, isolated electrically stimulated mouse vas deferens (vs detomidine). Type of experiment: biochemical. The protocol: α2 -antagonism was determined by means of isolated, electrically stimulated mouse vas deferens preparation (Marshall et al., Br. J. Pharmac. 62, 147, 151, 1978). In this model, α2 -agonist (detomidine) blocks electrically stimulated muscular contractions and the effect of the α2 -antagonist is seen by administering it prior to the agonist and by determining its pA2 value. Known α2 -antagonists like yohimbine and rauwolscine were used as reference substances.

Experiment [3] has as its target α1-receptors. Kind of experiment: α1-agonism in vitro, isolated anococcygeus muscle (rat). In kind it is biochemical. Particulars: negative logarithm of the molar concentration producing 50 percent of maximal contraction. As to the method: (§1) To obtain information also on the selectivity of the antagonist between α1 - and α2 -receptors, its ability to inhibit or stimulate α1 -receptors was determined by means of isolated anococcygeus muscle (rat). […] To determine α-antagonism, muscular contraction was induced by phenylephrine and the pA2 value of the studied compound was determined as above. α1 -agonist effect is presented as the pD2 value (negative logarithm of the molar concentration of the compound producing 50 percent of maximal contraction).

Experiment [4] deals with α2-receptor. In words: α2-antagonism in the central nervous system, inhibition of detomidine induced potentiation of barbiturate sleeping time in mice. Type of experiment: in vivo, mouse. The following applies: detomidine 150 μg/kg ip. An excerpt: α2 -antagonism in the central nervous system was secondly studied by following the ability of the antagonist to inhibit detomidine induced sedation in the mouse. This was done by measuring the increase of barbiturate sleeping time induced by detomidine. This effect of detomidine is known to be induced through α2 -receptor activation. The antagonist can be studied by administering it prior to detomidine.

Experiment [5] concerns the target α1-receptors. Kind of experiment: α1-antagonism in vitro, isolated anococcygeus muscle (rat), contraction induced by phenylephrine. Type of experiment: biochemical. The protocol:
as §1

The mark [6] stands for this setting: antagonist given prior to detomidine, read-out: α2-antagonism (pA2 vs detomidine) mouse vas deferens (converted).

As for `c1ccc2c(c1)CC(c1cnc[nH]1)C2` [Compound I], the “ED50, 50 percent reversal of detomidine-induced mydriasis” value (from here on “ED50, 50 percent reversal”) in experiment [1] (rat, in vivo) came out at 0.003 mg/kg. The compound further showed a Kb in experiment [2] of 0.00158 µM. The “α1-agonism (pD2) rat anococcygeus” value in experiment [3] is 6.5. Also, the “Effect on detomidine induced potentiation of the barbiturate sleeping time (± percent of controls)” value (shortened to “Effect … (± percent of controls)”) in experiment [4] (dose 0.1 mg/kg) was -20% of controls; in experiment [4] (dose 0.3 mg/kg) it was -60% of controls; in experiment [4] (dose 1 mg/kg), -100% of controls.

Take `COc1cc2nc(N3CCN(C(=O)c4ccco4)CC3)nc(N)c2cc1OC` [Prazosin]: the “Effect … (± percent of controls)” value in experiment [4] (dose 0.1 mg/kg) was 0% of controls; in experiment [4] (dose 0.3 mg/kg) it was 0% of controls; in experiment [4] (dose 1 mg/kg) it was 0% of controls; in experiment [4] (dose 3 mg/kg), “+16% of controls”; in experiment [4] (dose 10 mg/kg), “+18% of controls”.

Consider `CC1(c2cnc[nH]2)Cc2ccccc2C1` [Compound XII], for which, in experiment [1] (rat, in vivo), the “ED50, 50 percent reversal” value is 0.003 mg/kg. Besides, the Kb in experiment [2] (setting [6]) was 0.00794 µM. Moreover, the “α1-agonism (pD2) rat anococcygeus” value in experiment [3] is 5.5.

Compound `c1ccc2c(c1)CCC(c1cnc[nH]1)C2` (centres unmarked) [Compound XVIII] gave a Kb in experiment [2] of 0.02 µM. Moreover, the “α1-agonism (pD2) rat anococcygeus” value in experiment [3] was determined as 6.0.

For the compound `Cc1ccc(N(CC2=NCCN2)c2cccc(O)c2)cc1` [Phentolamine, reference compound], the “ED50, 50 percent reversal” value in experiment [1] (anaesthetized rat, standard iv dose of detomidine) was determined as 1 mg/kg.

Compound `CCC1(c2cnc[nH]2)Cc2ccccc2C1` [Compound XV] showed a Kb in experiment [2] of 0.00501 µM.

Regarding `CNC[C@H](O)c1cccc(O)c1` [Phenylephrine, reference compound], the “α1-agonism (pD2) rat anococcygeus” value in experiment [3] is given as 6.5.

Take `Cc1ccc2c(c1)CC(c1cnc[nH]1)C2` (centres unmarked) [Compound IV]: in experiment [1] (rat, in vivo), the “ED50, 50 percent reversal” value turned out to be 0.02 mg/kg. Moreover, the Kb in experiment [2] is 0.02 µM. The “α1-agonism (pD2) rat anococcygeus” value in experiment [3] is reported as 6.5.

`CC1c2ccccc2CC1c1cnc[nH]1` (centres unmarked) [Compound VI]: the “ED50, 50 percent reversal” value in experiment [1] (rat, in vivo) amounted to 0.1 mg/kg. Besides, in experiment [2], the Kb was 0.002 µM. Besides, the “α1-agonism (pD2) rat anococcygeus” value in experiment [3] was 6.5.

As to `Cc1ccc2c(c1)C(C)C(c1cnc[nH]1)C2` (centres unmarked) [Compound VIII], in experiment [1] (rat, in vivo), the “ED50, 50 percent reversal” value was 0.1 mg/kg. In experiment [5], the “α1-antagonism (pA2 vs phenylephrine) rat anococcygeus” value was determined as 5.9. In experiment [2], the Kb is 0.0251 µM.

With `Cc1cccc2c1CC(c1cnc[nH]1)C2C` (centres unmarked) [Compound VII], the “ED50, 50 percent reversal” value in experiment [1] (rat, in vivo) worked out at 0.1 mg/kg. The same compound had a Kb in experiment [2] of 0.0251 µM. In experiment [3], the “α1-agonism (pD2) rat anococcygeus” value is reported as 6.0.

As to `COC(=O)[C@@H]1[C@H]2C[C@H]3c4[nH]c5ccccc5c4CCN3C[C@@H]2CC[C@@H]1O` [Yohimbine], the “ED50, 50 percent reversal” value in experiment [1] (rat, in vivo) came out at 0.2 mg/kg. Further, in experiment [5], the “α1-antagonism (pA2 vs phenylephrine) rat anococcygeus” value came to 6.6. The same compound had a Kb in experiment [2] of 0.00794 µM. The “Effect … (± percent of controls)” value is 0% of controls in experiment [4] (dose 0.1 mg/kg); -18% of controls in experiment [4] (dose 0.3 mg/kg); -64% of controls in experiment [4] (dose 1 mg/kg); -70% of controls in experiment [4] (dose 3 mg/kg); -100% of controls in experiment [4] (dose 10 mg/kg).

Take `COC(=O)[C@H]1[C@H]2C[C@H]3c4[nH]c5ccccc5c4CCN3C[C@H]2CC[C@@H]1O` [Rauwolscine, reference compound]: the “α1-antagonism (pA2 vs phenylephrine) rat anococcygeus” value in experiment [5] came out at 6.3. The Kb in experiment [2] was 0.00794 µM.

Consider `CCC1(c2cnc[nH]2)Cc2ccc(C)cc2C1` (centres unmarked) [Compound XVII], for which, in experiment [2] (setting [6]), the Kb is 0.251 µM.

On to `c1ccc2c(c1)CC(c1cnc[nH]1)O2` (centres unmarked) [Compound II], for which the “ED50, 50 percent reversal” value in experiment [1] (rat, in vivo) came out at 0.07 mg/kg. The same compound had a Kb in experiment [2] of 0.0316 µM. In addition, the “α1-agonism (pD2) rat anococcygeus” value in experiment [3] turned out to be 5.5. Also, the “Effect … (± percent of controls)” value is reported as -5% of controls in experiment [4] (dose 0.1 mg/kg); -30% of controls in experiment [4] (dose 0.3 mg/kg); -60% of controls in experiment [4] (dose 1 mg/kg); -70% of controls in experiment [4] (dose 3 mg/kg); -85% of controls in experiment [4] (dose 10 mg/kg).

On to `Brc1ccc2c(c1)CC(c1cnc[nH]1)O2` (centres unmarked) [Compound III], for which the “ED50, 50 percent reversal” value in experiment [1] (rat, in vivo) amounted to 0.32 mg/kg. Also, the Kb in experiment [2] (setting [6]) was 0.631 µM. Moreover, the “α1-agonism (pD2) rat anococcygeus” value in experiment [3] amounted to 4.5.
